Assay results as given in patent US20180049996A1, “THERAPEUTIC AGENT FOR CHRONIC RESPIRATORY DISEASE AND COMPOSITION FOR INHIBITING CARDIAC FIBROSIS” (NIPPON HYPOX LABORATORIES INCORPORATED, priority 2015, published 2018).

Experiments:
[1] = system: Myocardial Disorder Induced by Doxorubicin; assay: Histopathologic examination of the hearts (light microscope), myocardial disorder induced by doxorubicin; assay type: in vivo, female SD rats; settings: for Severity score: Cell infiltration in interstitial tissue / Severity score: Degeneration of myocardial cells / Severity score: Loss and disorganization of myocardial fibers / Severity score: Loss of intercalated discs / Severity score: Loss of striations / Severity score: Vacuolation of myocardial fibers: Test group 2: doxorubicin 13 mg/kg + HTHQ 50 mg/kg; for lesions of cardiac tissue (light microscope): Test group 2: doxorubicin + HTHQ 50 mg/kg, compared to test group 1
Description: Doxorubicin is used to produce disease-model animals of cardiomyopathy. The doxorubicin and 2,3,5-trimethylhydroquinone-1-hexyl ether (HTHQ) as the hydroquinone derivative represented by the general formula (1) described above of the present invention were simultaneously administered to female SD rats of 4 week old after birth to examine the effect of the action. The test groups consisted of the control group to which sterile saline was administered; test group 1 to which doxorubicin (13 mg/kg body weight) alone was administered; test group 2 to which doxorubicin (13 mg/kg body weight) and HTHQ (50 mg/kg body weight) were administered in combination; and test group 3 to which doxorubicin (13 mg/kg body weight), HTHQ (50 mg/kg body weight) and recombinant human erythropoietin (400 IU/kg body weight) were administered in combination. […] The test group 3 is used to confirm the presence or absence of the inhibitory effect brought about by combining HTHQ and rHuEPO on myocardial disorder.
Doxorubicin was orally administered in a single dose to the rats in test groups 1 to 3. 2,3,5-trimethylhydroquinone-1-hexyl ether (HTHQ) was orally administered to the rats in test groups 2 and 3 twice in total: 3 days before the administration of doxorubicin and on the day of the administration. Recombinant human erythropoietin was daily administered to the rats in test group 3 starting from 3 days before the administration of doxorubicin by intravenous injection. The number of animals in each group was 16. 8 animals of each group were sacrificed after collecting blood on day 7 and 14 after the administration of doxorubicin, and the autopsy of the hearts, the calculation of the relative weights of the hearts, the histopathologic examination of the hearts and the hematological examination were conducted.
“−” indicates “not found”, “+” indicates “mild”, “++” indicates “moderate”, and “+++” indicates “severe” in severity scores of the table.

[2] = system: Reactive oxygen species (ROS); assay: Reactive oxygen species (ROS) in BAL cell fluid, COPD model; assay type: in vivo, C57BL/6N mice; settings: HTHQ 10 and 20 mg/kg/day oral; tobacco smoke 10 days + LPS; compared to COPD group
Description: 6 week old male SPF C57BL/6N mice, 20 to 25 g of body weight, were purchased from CORETEC INC. (South Korea).
The tests were conducted as follows. The mice in the COPD (chronic obstructive pulmonary disease) model group of the test groups were exposed to tobacco smoke for 1 hour per day (8 cigarettes/day) for 10 days and LPS (5 μg/50 μL/mouse) was intranasally administered to the mice on day 8 after the start of the tests. […]
The mice in the test groups were euthanized 72 hours after the LPS administration and the mice in the normal control group were euthanized on day 11 after the start of the tests by intraperitoneal injection of pentobarbital (Hanrimu pharmaceutical, South Korea) at 50 mg/kg and then the bronchi were excised. […] After preparing slide samples from 100 μL of BAL cell fluid using Cytospin (4° C., 1000 rpm×5 min), the cell numbers of inflammatory cells (neutrophil, macrophages) present in the BAL fluid were counted using a Diff-Quik stain kit.
Reactive oxygen species (ROS) amounts in BAL cell fluid were measured. […] Reactive oxygen species (ROS) amounts within cells were measured at an excitation wavelength of 485 nm and a fluorescence wavelength of 530 nm using a fluorescence plate analyzer (a product from PerkinElmer, Inc.).

SMILES: CCCCCCOc1cc(C)c(O)c(C)c1C [HTHQ, 2,3,5-trimethylhydroquinone-1-hexyl ether]
- Severity score: Cell infiltration in interstitial tissue ([1]; Day 7 after administration): −
- Severity score: Degeneration of myocardial cells ([1]; Day 7 after administration): +
- Severity score: Loss and disorganization of myocardial fibers ([1]; Day 7 after administration): +
- Severity score: Loss of intercalated discs ([1]; Day 7 after administration): +
- Severity score: Loss of striations ([1]; Day 7 after administration): +
- Severity score: Vacuolation of myocardial fibers ([1]; Day 7 after administration): −
- Severity score: Cell infiltration in interstitial tissue ([1]; Day 14 after administration): −
- Severity score: Degeneration of myocardial cells ([1]; Day 14 after administration): +
- Severity score: Loss and disorganization of myocardial fibers ([1]; Day 14 after administration): +
- Severity score: Loss of intercalated discs ([1]; Day 14 after administration): +
- Severity score: Loss of striations ([1]; Day 14 after administration): +
- Severity score: Vacuolation of myocardial fibers ([1]; Day 14 after administration): +
- lesions of cardiac tissue (light microscope) ([1]; day 7): alleviated
- lesions of cardiac tissue (light microscope) ([1]; day 14): also alleviated
- amount of reactive oxygen species (ROS) in BAL cell fluid [2]: effectively reduced
